Results from US10329304B2, “Compounds and methods for inhibition of hedgehog signaling and phosphodiesterase” (Vanderbilt University, priority 2014, dated 2019).

Columns and labels:
B16F11 = assay: Cell viability assay (CellTiter-Blue, 72 hr); type: cell-based, Mouse; conditions: Mus musculus, B16-F10; Table 10; read-out: CELL KILLING EC50 (μM) Melanoma B16F10
Experimental: (§1) Cancer cell lines were seeded in 96 well tissue culture plate at a low density (10,000 cells per well) and treated with varying concentrations of Eggmanone. After 72 hr incubation, CellTiter-Blue Cell Viability Assay (Promega, Madison, Wis.) was then performed according to manufacturer's protocol. Absorbance was then measured in a Modulus Microplate reader (Promega, Madison, Wis.) at 590 nm and compared to cells treated with DMSO.
as §1, with “density” for “density (10,000 cells per well)”, “compounds identified in Table 7.” for “Eggmanone.”

[1] = test system: Hedgehog signaling (Gli-Luc reporter); assay: Hh Gli-Luciferase reporter assay in Shh-Light2 cells; type: cell-based, mouse; conditions: Mus musculus, Shh Light2; Table 9B; read-out: Shh Light2 Luc EC50
Experimental: For Hh signaling assays, Shh-Light2 cells stably transfected with Gli-Luciferase reporter construct were used along with Shh-conditioned media, as previously described^7. Alternatively, 3 μM purmorphamine or 20 nM Smoothened agonist (SAG) (Santa Cruz Biotechnology, Santa Cruz, Calif.) was used to induce Hh signaling. Reporter cells were seeded in 96-well plates and incubated overnight with the various concentrations of eggmanone and Shh-conditioned media. To assess the effects of overexpression of Gli-2, PDE4D3 and DN-PDE4D3 on Hh signaling, mammalian expression vectors containing these constructs were transfected into Shh-Light2 cells in 96-well plates using Fugene6 (Roche), according to manufacturer's instructions. The transfected or Shh-stimulated cells were incubated overnight with the various concentrations of compound. The cells were then lysed, and cell extracts were subjected to Steady-Glo luciferase assay (Promega) according to manufacturer's instructions. The results were normalized to cell titer, as determined using Cell Titer-Glo luminescence assay (Promega).

MCF7 = assay: Cell viability assay (CellTiter-Blue, 72 hr); type: cell-based; conditions: MCF7; human cancer cells; read-out: CELL KILLING EC50 (μM) Breast MCF7
Experimental: as §1
as §1, with “density” for “density (10,000 cells per well)”, “compounds identified in Table 7.” for “Eggmanone.”

H82 = assay: Cell killing EC50 in H82 lung cancer cells (Table 10); type: cell-based; conditions: NCI-H82; human cancer cells
Experimental: It is anticipated that compounds disclosed herein could serve as an anti-tumor, anti-angiogenic, anti-metastatic, agent in the treatment of cancer. To this end, a series of clinically relevant cancer lines were assayed and the cell-killing EC50s for compounds according to the subject matter disclosed herein are provided in Table 10.

MDA-MB- 231 = assay: Cell viability assay (CellTiter-Blue, 72 hr); type: cell-based, Human; conditions: MDA-MB-231; human cancer cells; read-out: CELL KILLING EC50 (μM) Breast MDA-231
Experimental: as §1
as §1, with “density” for “density (10,000 cells per well)”, “compounds identified in Table 7.” for “Eggmanone.”

RWGT2 = assay: Cell viability assay (CellTiter-Blue, 72 hr); type: cell-based, Human; conditions: human cancer cells; read-out: CELL KILLING EC50 (μM) Lung Squam, NSCLC RWGT2
Experimental: as §1
as §1, with “density” for “density (10,000 cells per well)”, “compounds identified in Table 7.” for “Eggmanone.”

DU145 = assay: Cell viability assay (CellTiter-Blue, 72 hr); type: cell-based, Human; conditions: DU-145; human cancer cells; read-out: CELL KILLING EC50 (μM) Prostate DU145
Experimental: as §1
as §1, with “density” for “density (10,000 cells per well)”, “compounds identified in Table 7.” for “Eggmanone.”

SW480 = assay: Cell viability assay (CellTiter-Blue, 72 hr); type: cell-based, Human; conditions: SW480; human cancer cells; read-out: CELL KILLING EC50 (μM) Colon SW480
Experimental: as §1
as §1, with “density” for “density (10,000 cells per well)”, “compounds identified in Table 7.” for “Eggmanone.”

DaoY = assay: Cell viability assay (CellTiter-Blue, 72 hr); type: cell-based, Human; conditions: Daoy; human cancer cells; read-out: CELL KILLING EC50 (μM) Medulloblastoma DaoY
Experimental: as §1
as §1, with “density” for “density (10,000 cells per well)”, “compounds identified in Table 7.” for “Eggmanone.”

RKO = assay: Cell viability assay (CellTiter-Blue, 72 hr); type: cell-based, Human; conditions: RKO; human cancer cells; read-out: CELL KILLING EC50 (μM) Colon RKO
Experimental: as §1
as §1, with “density” for “density (10,000 cells per well)”, “compounds identified in Table 7.” for “Eggmanone.”

HeLa = assay: Cell viability assay (CellTiter-Blue, 72 hr); type: cell-based, Human; conditions: human cancer cells, read-out: CELL KILLING EC50 (μM) Cervix HeLa
Experimental: as §1
as §1, with “density” for “density (10,000 cells per well)”, “compounds identified in Table 7.” for “Eggmanone.”

HCT116 = assay: Cell viability assay (CellTiter-Blue, 72 hr); type: cell-based, Human; conditions: HCT-116; human cancer cells; read-out: CELL KILLING EC50 (μM) Colon HTC116
Experimental: as §1
as §1, with “density” for “density (10,000 cells per well)”, “compounds identified in Table 7.” for “Eggmanone.”

PC3 = assay: Cell viability assay (CellTiter-Blue, 72 hr); type: cell-based; conditions: PC-3; human cancer cells; read-out: CELL KILLING EC50 (μM) Prostate PCx3
Experimental: as §1

PDE4D3 = target: T1, PDE4D3 (Homo sapiens, UniProt Q08499); assay: In vitro PDE assay; type: biochemical
T1 construct: purchased BPS Biosciences (San Diego, Calif.); kinetic studies by Millipore (St. Louis, Mo.)
Experimental: (§2) In vitro PDE profiling and dose-response assays were performed by BPS Biosciences (San Diego, Calif.). Kinetic Mechanism of inhibition studies were conducted by Millipore (St. Louis, Mo.). In brief, the PDE assay measures fluorescent polarization of FAM-AMP as FAM-cAMP is converted to FAM-AMP by PDE), the binding agent.
(§3) A series of dilutions of the test compound were prepared with 10% DMSO in assay buffer and 5 μl of the dilution was added to a 50 μl reaction so that the final concentration of DMSO is 1% in all of reactions. All of the PDE enzymatic reactions were conducted in duplicate at room temperature for 60 minutes in a 50 μl mixture containing PDE assay buffer (10 mM Tris-HCl, pH7.4, 10 mM MaCl2, 0.05% Tween 20), 100 nM FAM-cAMP, a PDE enzyme and a test compound.
(§4) After the enzymatic reaction, 100 μl of a binding solution (1:100 dilution of the binding agent, which contains the nano beads that recognize FAM-AMP, with the binding agent diluent) was added to each reaction and the reaction was performed at room temperature for 60 minutes. Fluorescence intensity was measured at an excitation of 485 nm and an emission of 528 nm using a Tecan Infinite M1000 microplate reader. Assays done by Millipore were conducted similarly with changes noted below: […]

PDE4D2 = target: T2, PDE4D2 (Homo sapiens, UniProt Q08499); assay: In vitro PDE assay; type: biochemical; conditions: Table 9A
T2 construct: purchased BPS Biosciences (San Diego, Calif.)
Experimental: as §2, §3, §4

Gli1 mRNA = assay: Hh % Inh.: SAG-induced Gli1 expression in C3H10T½ cells (qPCR); type: cell-based; conditions: Mus musculus, C3H 10T1/2, SAG-induced (100 nM), 24 hours; for inhibition at 1 µM: 1 pM [sic], read-out: C3H10T1/2 qPCR, Gh1 mRNA % Inh., 1 pM; for inhibition at 10 µM: 10 pM [sic], read-out: C3H10T1/2 qPCR, Gh1 mRNA % Inh., 10 pM
Experimental: Compounds are dosed from 10 mM DMSO stock solutions, and mRNA is isolated after 24 hours of compound treatment. mRNA is reverse transcribed to produce cDNA which is quantified by quantitative polymerase chain reaction (qPCR) in triplicate and levels are normalized to GAPDH levels. Data is presented as percent inhibition compared to positive control (SAG).

[2] = test system: Hedgehog signaling (TM3-Gli-Luc); assay: TM3-Gli-Luc luciferase reporter assay stimulated with 20 nM SAG; type: cell-based; conditions: Table 9A; read-out: TM3 G8 Luciferase EC 50
Summary of the method: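 Luciferase read-out divided by CellTiter-Glo viability, minus DMSO/no-SAG baseline, expressed relative to 20 nM SAG alone. Cells exposed to compound with SAG for 48 h at 37 °C in 2.5% FBS DMEM/F12 on gelatin. EC50 ±SEM from at least two separate-day runs.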

T1 sequence (Q08499 1-673 isoform Q08499-2): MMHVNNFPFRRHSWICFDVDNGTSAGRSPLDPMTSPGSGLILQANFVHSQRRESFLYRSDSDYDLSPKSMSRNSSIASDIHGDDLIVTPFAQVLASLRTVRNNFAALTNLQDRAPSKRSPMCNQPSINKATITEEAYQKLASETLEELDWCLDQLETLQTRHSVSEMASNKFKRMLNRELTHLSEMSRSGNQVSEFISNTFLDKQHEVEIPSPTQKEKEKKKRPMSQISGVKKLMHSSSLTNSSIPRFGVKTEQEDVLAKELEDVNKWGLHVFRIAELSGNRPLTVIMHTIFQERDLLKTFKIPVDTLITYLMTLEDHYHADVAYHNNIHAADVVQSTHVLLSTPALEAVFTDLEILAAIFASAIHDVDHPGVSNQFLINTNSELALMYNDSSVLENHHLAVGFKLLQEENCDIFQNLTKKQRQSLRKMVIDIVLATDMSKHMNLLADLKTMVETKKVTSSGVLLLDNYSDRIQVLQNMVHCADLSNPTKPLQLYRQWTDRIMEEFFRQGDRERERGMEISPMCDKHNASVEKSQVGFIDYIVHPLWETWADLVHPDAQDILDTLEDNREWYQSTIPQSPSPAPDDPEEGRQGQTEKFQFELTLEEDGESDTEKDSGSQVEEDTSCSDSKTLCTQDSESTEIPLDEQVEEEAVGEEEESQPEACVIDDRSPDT
T2 sequence (Q08499 303-809): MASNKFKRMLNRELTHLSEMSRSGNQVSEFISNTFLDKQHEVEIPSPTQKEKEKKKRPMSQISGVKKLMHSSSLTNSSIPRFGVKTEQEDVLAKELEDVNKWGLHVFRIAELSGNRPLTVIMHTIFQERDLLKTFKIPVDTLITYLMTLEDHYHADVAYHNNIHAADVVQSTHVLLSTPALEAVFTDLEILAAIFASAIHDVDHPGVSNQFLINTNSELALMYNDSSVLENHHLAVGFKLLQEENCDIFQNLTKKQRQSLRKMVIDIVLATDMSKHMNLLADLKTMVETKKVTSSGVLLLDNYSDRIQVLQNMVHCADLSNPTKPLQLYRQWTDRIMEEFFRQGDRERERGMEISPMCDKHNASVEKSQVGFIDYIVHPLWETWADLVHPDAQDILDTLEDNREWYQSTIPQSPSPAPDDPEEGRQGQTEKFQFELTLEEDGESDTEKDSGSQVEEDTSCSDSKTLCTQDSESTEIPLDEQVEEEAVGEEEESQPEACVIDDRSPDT

Structure (SMILES) | EC50 (B16F11) [µM] | EC50 [1] [µM] | EC50 (MCF7) [µM] | EC50 (H82) [µM] | EC50 (MDA-MB- 231) [µM] | EC50 (RWGT2) [µM] | EC50 (DU145) [µM] | EC50 (SW480) [µM] | EC50 (DaoY) [µM] | EC50 (RKO) [µM] | EC50 (HeLa) [µM] | EC50 (HCT116) [µM] | EC50 (PC3) [µM] | IC50 (PDE4D3; Table 9B) [µM] | IC50 (PDE4D3; Table 9A) [µM] | IC50 (PDE4D2) [µM] | inhibition at 1 µM (Gli1 mRNA) [%] | inhibition at 10 µM (Gli1 mRNA) [%] | EC50 [2] [µM]
C=CCn1c(SCC(=O)c2ccccc2)nc2sc(C)cc2c1=O [HI277] | > 100 | > 10 | > 100 | > 100 | 186 | 30.5 | 180 | 0.03 | 247 | > 100 | 5.11 | 136 | > 100 |  |  |  |  |  | 
Cn1c(SCC(=O)c2ccc(F)cc2)nc2sc3c(c2c1=O)CCCC3 [HI302] | 16 | > 10 | > 100 | > 100 | 18.7 | 22.9 | 0.078 | 3.3 | 26.6 | 0.0096 | 20.2 | 21.9 | > 100 |  |  |  |  |  | 
CCCCn1c(SCC(=O)c2ccccc2)nc2sc3c(c2c1=O)CCC3 [HI352] | 109 | > 10 | > 100 | > 100 | 84.5 | 73.8 | 98.1 | 0.287 | 100 | 100 | 114 | 74.7 | 0.03 | 20 |  |  |  |  | 
C=CCn1c(SCC(=O)c2ccc(Cl)s2)nc2sc(C)c(C)c2c1=O [HI499] | 46 | 4.6 to 9.5 | 2.67 | > 100 | > 100 | 45.8 | 48.8 | 0.69 | 177 | 35.7 | 441 | 28.1 | 202 |  |  |  |  |  | 
C=CCn1c(SCC(=O)c2ccccc2)nc2sc(CC)cc2c1=O [HI630] |  | > 10 | > 100 | > 100 | 23.1 | 44.4 | > 100 | 182 | > 100 | 100 | > 100 |  | > 100 | 6 |  |  |  |  | 
C=C(C)Cn1c(SCC(=O)c2ccc(F)cc2)nc2sc3c(c2c1=O)CCCC3 [HI0863] | 4.46 | 2.44 | > 100 | > 100 | 3.12 | 38.8 | 2.38 | 5.4 | 39.8 | 42.8 | 12.2 | 0.078 | 47.7 |  |  |  |  |  | 
O=C(CSc1nc2sc3c(c2c(=O)n1-c1ccccc1)CCCC3)c1cccs1 [JEH-3-058-1] |  |  |  |  |  |  |  |  |  |  |  |  |  |  | 14 | 45 | 12 | 85.3 | 12.6
C=C(C)Cn1c(SCC(=O)N2CCOCC2)nc2sc3c(c2c1=O)CCCC3 [JEH-3-079] |  |  |  |  |  |  |  |  |  |  |  |  |  |  | 4.1 | 3.2 | 25.1 | 50.8 | 18.2
